In patent publication US4102884A, “14 β-Hydroxy 3-deoxycardenolides” (priority 1975, dated 1978):
Entries after “also recorded” stand apart in the source; their conditions may differ. Read-outs that look alike come from different tables or passages of the source.

Tests used:
ATP-ase = ATP-ase inhibition, methods of Okita et al (1973) and Kupchan et al (1964); format: biochemical, guinea pigs (brain); parameters: ATP-ase inhibition, % reversibility of inhibition: concentration or dose not given beside the values; details: for ATP-ase inhibition, % reversibility of inhibition / ATP-ase inhibition, % inhibition at a 1×10^-4 molar concentration: Table 2; for ATP-ase inhibition, comparison in words: compared with 3-deoxycannogenol and digoxin, or acetyl-strophanthidin
Protocol: (§1) The inotropic effects have been determined with spontaneously beating atrial preparations derived from guinea pigs. The ATP-ase was obtained from the brain of the same animal and the methods of Okita et al (1973) and of Kupchan et al (1964) were employed. The lethal dose in cats was determined by the method of Chen.

[1] = tested on: spontaneously beating atrial preparations; assay: Inotropic effect (increase in contractility) in spontaneously beating atrial preparations; parameters: species or system guinea pigs; details: for inotropic effect, comparison in words: compared with digoxin and/or 3-deoxycannogenol; for EC (30% increase in contractility) / EC (50% increase in contractility) / EC (80% increase in contractility): Cavia porcellus; for EC (30% increase in contractility): read-out: Molar concentration causing 30% increase in contractility; for EC (50% increase in contractility): read-out: Molar concentration causing 50% increase in contractility; for EC (80% increase in contractility): read-out: Molar concentration causing 80% increase in contractility; for arrhythmogenicity relative to digoxin, in words: inotropic tests
Protocol: as §1

heart muscle = tested on: heart muscle; parameters: species or system guinea pigs; details: decreasing order of number of washings; inotropic tests
Protocol: as §1

[2] = cited from earlier work
[3] = Lipophilicity (statement in words); format: physicochemical
heart = details: literature; cited from earlier work
cats [4] = assay: Lethal dose in cats, method of Chen; format: in vivo; details: compared with digoxin
Protocol: as §1

cats [5] = assay: Emetic effects in cats, intravenous; format: in vivo; details: intravenous doses amounting to 1/10 and 1/100 of the lethal dose
[6] = Table 2, preliminary biological tests, 30%
[7] = Table I / Example 45, guinea pig atria

With `C[C@]12CC[C@H]3[C@@H](CC[C@H]4C=CCC[C@@]43CO)[C@@]1(O)CC[C@@H]2C1=CC(=O)OC1` the “ATP-ase inhibition, % reversibility of inhibition” value (ATP-ase) was 81%, the “ATP-ase inhibition, % inhibition at a 1×10^-4 molar concentration” value (“ATP-ase inhibition, % inhibition” below) (ATP-ase) was 63% and the “Molar concentration causing 30% increase in contractility” value [1, 6] was “inactive”.
In the case of `CC(=O)O[C@H]1CC[C@]2(C=O)[C@H]3CC[C@]4(C)[C@@H](C5=CC(=O)OC5)CC[C@]4(O)[C@@H]3CC[C@]2(O)C1` [strophanthidin 3-acetate], the “number of washings to remove the compound from the bath / ease of removal” value (from here on “number … from the bath / ease of removal”) (heart muscle) is given as “digitoxin > digoxin > 3-deoxycannogenol > 14,19-dihydroxy-5β,14β-carda-3,20(22)-dienolide > strophanthidin 3-acetate”, the “intravenous activity, onset and duration, in words” value [2] is given as “high intravenous activity, fast onset and short duration of activity” and the “oral activity, in words” value [2] is given as “rather low oral activity”.
With `C[C@]12CC[C@H]3[C@@H](CC[C@@H]4CCCC[C@@]43COC=O)[C@@]1(O)CC[C@@H]2C1=CC(=O)OC1` [19-formate of 3-deoxycannogenol, 19-formyloxy-14-hydroxy-5β,14β-card-20(22)-enolide] the “lipophilicity, in words” value [3] was “more lipophilic”, the “inotropic effect, comparison in words” value [1] was “substantial inotropic activity which equals about that of digoxin” and the “inotropic effect, comparison in words” value ([1]; listed as 19-formate ester of 3-deoxycannogenol) was “less active than 3-deoxycannogenol”.
In the case of `C[C@]12CCCC[C@H]1CC[C@@H]1[C@@H]2CC[C@]2(C)[C@@H](C3=CC(=O)OC3)CC[C@]12O` [3-deoxydigitoxigenin, 14-hydroxy-5β,14β-card-20(22)-enolide], the “cardiac activity, in words” value (heart) is listed as “significantly less active than digitoxigenin”.
With `C[C@]12CC[C@H]3[C@@H](CC[C@@H]4CCCC[C@@]43CO)[C@@]1(O)CC[C@@H]2C1COC(=O)C1` (stereo partly drawn) [drawing 21] the “ATP-ase inhibition, % reversibility of inhibition” value (ATP-ase) was 57%, the “ATP-ase inhibition, % inhibition” value (ATP-ase) was 45% and the EC (30% increase in contractility) [1, 6] was 18.5 µM. It also gave an EC (50% increase in contractility) ([1]; Table 2, preliminary biological tests) of 40 µM.
With `C[C@]12CC[C@@H]3[C@H]4CCCC[C@H]4CC[C@H]3[C@@]1(O)CC[C@@H]2C1=CC(=O)OC1` [19-nor analog, 14-hydroxy-19-nor-5β,14β-card-20(22)-enolide] the “heart-activity, in words” value [1] was “substantial heart-activities”.
For `C[C@@H]1O[C@@H](O[C@H]2C[C@@H](O)[C@]3(CO)[C@H]4[C@H](O)C[C@]5(C)[C@@H](C6=CC(=O)OC6)CC[C@]5(O)[C@@H]4CC[C@]3(O)C2)[C@H](O)[C@H](O)[C@H]1O` [ouabain], the “intravenous activity, onset and duration, in words” value [2] is given as “high intravenous activity, fast onset and short duration of activity” and the “oral activity, in words” value [2] is given as “rather low oral activity”.
In the case of `CC(=O)O[C@@H]1C[C@]2(O)[C@H](CC[C@]3(C)[C@@H](c4ccc(=O)oc4)CC[C@@]32O)[C@@]2(C)CC[C@H](O)C=C12` [scillirosidin], the “cardiac activity, in words” value (heart) is given as “high cardiac activity”.
For `C[C@]12CC[C@H]3[C@@H](CC[C@@H]4C=CCC[C@@]43COC=O)[C@@]1(O)CC[C@@H]2C1=CC(=O)OC1`, the “ATP-ase inhibition, % reversibility of inhibition” value (ATP-ase) was 84% and the “ATP-ase inhibition, % inhibition” value (ATP-ase) was 41%.
In the case of `C[C@]12CC[C@@H]3[C@H]4CCCC[C@H]4CC[C@H]3[C@@]1(O)CC[C@@H]2C1=CC(=O)OC1` [drawing 23], the “ATP-ase inhibition, % reversibility of inhibition” value (ATP-ase) is reported as 76% and the “ATP-ase inhibition, % inhibition” value (ATP-ase) is reported as 59%.
In the case of `CO[C@H]1C[C@H](O[C@H]2CC[C@]3(C)[C@H]4CC[C@]5(C)[C@@H](C6=CC(=O)OC6)CC[C@]5(O)[C@@H]4CC[C@]3(O)C2)O[C@H](C)[C@H]1O` [cymaroside of 5β-hydroxydigitoxigenin], the “cardiac activity, in words” value (heart) is listed as “nearly twice as active as the cymaroside of digitoxigenin”.
In the case of `C[C@H]1O[C@@H](O[C@H]2[C@@H](O)C[C@H](O[C@H]3[C@@H](O)C[C@H](O[C@H]4CC[C@@]5(C)[C@H](CC[C@@H]6[C@@H]5CC[C@]5(C)[C@@H](C7=CC(=O)OC7)CC[C@]65O)C4)O[C@@H]3C)O[C@@H]2C)C[C@H](O)[C@@H]1O` [digitoxin, reference compound], the “number … from the bath / ease of removal” value (heart muscle) is reported as “digitoxin > digoxin > 3-deoxycannogenol > 14,19-dihydroxy-5β,14β-carda-3,20(22)-dienolide > strophanthidin 3-acetate”.
For `C[C@]12CC[C@H]3[C@@H](CC[C@@H]4CCCC[C@@]43CO)[C@@]1(O)CC[C@@H]2C1=CC(=O)OC1` [3-deoxycannogenol, 19-hydroxy-3-deoxydigitoxigenin], the “toxicity relative to digoxin (lethal dose), in words” value (cats [4]; cats) was “substantially lower than that of digoxin; also recorded: less than half as toxic as digoxin”, the “therapeutic index, in words” value (cats [4]) was “better therapeutic index” and the emetic effects (cats [5]) was “no emetic effects”. The “lipophilicity, in words” value [3] was “considerably more lipohilic than the 19-oxygenated cardenolides obtained from natural sources”, the “number … from the bath / ease of removal” value (heart muscle) was “more readily removed from the bath, containing the heart muscle, by repeated washing, than digoxin and less readily than the more polar strophanthidin 3-acetate; also recorded: digitoxin > digoxin > 3-deoxycannogenol > 14,19-dihydroxy-5β,14β-carda-3,20(22)-dienolide > strophanthidin 3-acetate” and the “dissociation of inotropic activity from ATP-ase inhibition and lethality, in words” value [1] was “strong dissociation of inotropic activity from ATP-ase inhibition and lethality”. It also gave an EC (50% increase in contractility) [1, 7] of 1.1 µM, an EC (30% increase in contractility) ([1]; Table I, guinea pig atria, 30%) of 0.72 µM and an EC (80% increase in contractility) ([1]; Table I, guinea pig atria) of 1.95 µM. For the same molecule, the “arrhythmia, in words” value ([1]; at doses causing an increase of 90% of contractile force) was “no arrhythmia were observed”, the “inotropic effect, comparison in words” value [1] was “considerably more strongly than digoxin; also recorded: strong inotropic effect” and the “arrhythmogenicity relative to digoxin, in words” value [1] was “considerably less arrhythomogenic than digoxin”. For the same molecule, the “times more inotropic than digoxin” value ([1]; molar basis, relative to digoxin) was 2-4 times.
With `C[C@]12CC[C@H]3[C@@H](CC[C@H]4CCCC[C@@]43COC=O)[C@@]1(O)CC[C@@H]2C1=CC(=O)OC1` the “ATP-ase inhibition, % reversibility of inhibition” value (ATP-ase) was 95%, the “ATP-ase inhibition, % inhibition” value (ATP-ase) was 42% and the EC (30% increase in contractility) [1, 6] was 50 µM.
In the case of `C[C@]12CC[C@H]3[C@@H](CC[C@@H]4CCCC[C@@]43COC=O)[C@@]1(O)CC[C@@H]2C1=CC(=O)OC1` [drawing 19], the EC (30% increase in contractility) [1, 6] is reported as 2.9 µM.
For `C[C@]12CC[C@H]3[C@@H](CC[C@@H]4CCCC[C@@]43CO)[C@@]1(O)CC[C@@H]2C1COC(=O)C1` (stereo partly drawn) [20(22)-dihydro analog, 3-deoxy-20.xi.,22-dihydrocannogenol], the “heart-activity, in words” value [1] was “substantial heart-activities”.
In the case of `C[C@]12CCCC[C@H]1CC[C@@H]1[C@@H]2C[C@@H](O)[C@]2(C)[C@@H](C3=CC(=O)OC3)CC[C@]12O` [3-deoxydigoxigenin], the “ATP-ase inhibition, comparison in words” value (ATP-ase) is reported as “comparable biological and inotropic effects and the ATP-ase inhibition as the 19-deoxygenated steroid acetyl-strophanthidin”, the IC50 (ATP-ase; guinea pig brain ATP-ase, read-out: Molar concentration causing 50% ATP-ase inhibition) is reported as 68 µM and the EC (50% increase in contractility) [1, 7] is reported as 7.6 µM. For the same molecule, the “inotropic effect, comparison in words” value [1] was “comparable biological and inotropic effects” and the “arrhythmogenicity relative to digoxin, in words” value [1] was “much less arrhythomogenic relative to the anitropic activity than digoxin”.
For `C[C@@H]1O[C@@H](OC2CC[C@@]3(CO)[C@@H](CC[C@@H]4[C@@H]3[C@@H](O)C[C@]3(C)[C@@H](C5=CC(=O)OC5)CC[C@]43O)C2)[C@H](O)[C@H](O)[C@H]1O` (stereo partly drawn) [panoside], the “cardiac activity, in words” value (heart) is given as “high cardiac activity; also recorded: highly potent”.
With `C[C@]12CC[C@H]3[C@@H](CC[C@@H]4C=CCC[C@@]43CO)[C@@]1(O)CC[C@@H]2C1=CC(=O)OC1` [14,19-dihydroxy-5β,14β-carda-3,20(22)-dienolide] the “toxicity relative to digoxin, in words” value (ATP-ase; basis not stated, only ATP-ase inhibition tabulated) was “appears to be less toxic than digoxin”, the “ATP-ase inhibition, comparison in words” value (ATP-ase) was “generally between those of 3-deoxycannogenol and digoxin” and the “number … from the bath / ease of removal” value (heart muscle) was “digitoxin > digoxin > 3-deoxycannogenol > 14,19-dihydroxy-5β,14β-carda-3,20(22)-dienolide > strophanthidin 3-acetate”. It also gave an EC (50% increase in contractility) [1, 7] of 2.8 µM, an EC (30% increase in contractility) ([1]; Table I, guinea pig atria, 30%) of 2.2 µM and an EC (80% increase in contractility) ([1]; Table I, guinea pig atria) of 4 µM. The “inotropic effect, comparison in words” value [1] was “generally between those of 3-deoxycannogenol and digoxin”, the “inotropic effect, comparison in words” value ([1]; listed as 3(4)-anhydrocannogenol) was “greater inotropic activity than digoxin, though it is less active than 3-deoxycannogenol” and the “arrhythmogenicity relative to digoxin, in words” value [1] was “considerably less arrhythomogenic than digoxin”.
